Source: patent publication US20240287066A1, “Crystalline Form of Sotorasib” (Sandoz AG, priority 2021, published 2024)
Where two headings read alike, the source gives them in different places.

Key:
[1] = Gravimetric moisture sorption (GMS) of sotorasib Form A; format: physicochemical
Protocol: Gravimetric moisture sorption was performed with an SPSx-1μ moisture sorption analyzer (ProUmid, Ulm). The measurement cycle was started at ambient relative humidity (RH) of 40%. RH was then decreased to 5% in 5% steps, followed by a further decrease to 3% and to 0%. […] Finally, RH was increased to ambient relative humidity of 40% in 5% steps. The time per step was set to a minimum of 2 hours and a maximum of 6 hours. If an equilibrium condition with a constant mass of ±0.01% within 1 hour was reached before the maximum time for all examined samples the sequential humidity step was applied before the maximum time of 6 hours. If no equilibrium was achieved the consecutive humidity step was applied after the maximum time of 6 hours. The temperature was (25±0.1)° C.

[2] = Stress stability (temperature and humidity stress, PXRD read-out); format: physicochemical; conditions: for solid form by PXRD after stress storage: 30 weeks, open stored in glass vials
Description: Sotorasib Form A of the present invention was subjected to various temperature and humidity stress conditions for 30 weeks as outlined in Table 3 below. The samples were open stored in glass vials.

[3] = Powder dissolution in acetate buffer pH 4.5 and phosphate buffer pH 6.8; format: physicochemical; conditions: for solubility compared to crystalline Form I (in words): 15 minutes to 24 hours; for phase change by PXRD during the dissolution experiments: acetate buffer pH 4.5 and phosphate buffer pH 6.8, 37° C., up to 24 hours
Protocol: Powder dissolution experiments were carried out at a temperature of 37° C. in acetate buffer pH 4.5 and phosphate buffer pH 6.8 for the crystalline Form I of sotorasib disclosed in WO 2020/236947 A1 and the crystalline Form A of sotorasib of the present invention. Particle sizes of both forms were kept as similar as possible to allow for proper comparison. The respective concentrations were determined at a wavelength of 293 nm in case of the acetate buffer and at 354 nm in case of the phosphate buffer.

[4] = cited from earlier work; for hygroscopic behaviour (in words): GMS data of WO 2020/236947 A1, 0-90% RH, 25° C.; for Mass increase from 0-90% RH at 25° C.: GMS, data from paragraph [0334] on page 46 of WO 2020/236947 A1

With `C=CC(=O)N1CCN(c2nc(=O)n(-c3c(C)ccnc3C(C)C)c3nc(-c4c(O)cccc4F)c(F)cc23)[C@@H](C)C1` [Sotorasib Form A, 6-fluoro-7-(2-fluoro-6-hydroxyphenyl)-1-(4-methyl-2-(2-propanyl)-3-pyridinyl)-4-((2S)-2-methyl-4-(2-propenoyl)-1-piperazinyl)pyrido[2,3-d]pyrimidin-2(1H)-one] the “hygroscopic behaviour (in words)” value ([1]; GMS, 0-90% RH, 25° C.) was “slightly hygroscopic”, the “mass difference in the sorption cycle between 0 and 90% RH” value ([1]; GMS, 0-90% RH, (25±0.1)° C.) was “about 0.4 w-%” and the “Mass increase from 0-90% RH at 25° C.” value ([1]; GMS, data from FIG. 4 of present invention) was “+0.4%”. For the same compound, the “PXRD of the sample after the GMS experiment” value ([1]; after sorption/desorption cycle 0-90% RH, 25° C.) was “same PXRD”, the “solid form by PXRD after stress storage” value ([2]; 25° C./60% RH) was “Form A” and the “solid form by PXRD after stress storage” value ([2]; 30° C./65% RH) was “Form A”. For the same compound, the “solid form by PXRD after stress storage” value ([2]; 40° C./75% RH) was “Form A”, the “solid form by PXRD after stress storage” value ([2]; RT/0% RH) was “Form A” and the “solid form by PXRD after stress storage” value ([2]; RT/97% RH) was “Form A”. The “phase change by PXRD at any stress condition” value ([2]; all temperature and humidity stress conditions of Table 3, 30 weeks) was “no phase change occurred”, the “solubility compared to crystalline Form I (in words)” value ([3]; acetate buffer pH 4.5, 37° C., FIG. 5) was “significantly increased solubility” and the “equilibrium solubility after 24 hours compared to crystalline Form I” value ([3]; acetate buffer pH 4.5, 37° C.) was “about 3 fold”. For the same compound, the “phase change by PXRD during the dissolution experiments” value [3] was “no phase changes occurred”, the “solubility compared to crystalline Form I (in words)” value ([3]; phosphate buffer pH 6.8, 37° C., FIG. 6) was “significantly increased solubility” and the “equilibrium solubility after 24 hours compared to crystalline Form I” value ([3]; phosphate buffer pH 6.8, 37° C.) was “about 2 fold”.
For `C=CC(=O)N1CCN(c2nc(=O)n(-c3c(C)ccnc3C(C)C)c3nc(-c4c(O)cccc4F)c(F)cc23)[C@@H](C)C1` [Form III of WO 2020/236947 A1, 6-fluoro-7-(2-fluoro-6-hydroxyphenyl)-1-(4-methyl-2-(2-propanyl)-3-pyridinyl)-4-((2S)-2-methyl-4-(2-propenoyl)-1-piperazinyl)pyrido[2,3-d]pyrimidin-2(1H)-one], the “hygroscopic behaviour (in words)” value [4] is given as “hygroscopic” and the “Mass increase from 0-90% RH at 25° C.” value [4] is given as “+7.0%”.
In the case of `C=CC(=O)N1CCN(c2nc(=O)n(-c3c(C)ccnc3C(C)C)c3nc(-c4c(O)cccc4F)c(F)cc23)[C@@H](C)C1` [Form I of WO 2020/236947 A1, 6-fluoro-7-(2-fluoro-6-hydroxyphenyl)-1-(4-methyl-2-(2-propanyl)-3-pyridinyl)-4-((2S)-2-methyl-4-(2-propenoyl)-1-piperazinyl)pyrido[2,3-d]pyrimidin-2(1H)-one], the “Mass increase from 0-90% RH at 25° C.” value [4] is given as “+0.5-1.0% ^”, the “Mass increase from 0-90% RH at 25° C.” value ([4]; listed as Form I) is given as 0.5-1.0% and the “phase change by PXRD during the dissolution experiments” value [3] is given as “no phase changes occurred”.
In the case of `C=CC(=O)N1CCN(c2nc(=O)n(-c3c(C)ccnc3C(C)C)c3nc(-c4c(O)cccc4F)c(F)cc23)[C@@H](C)C1` [Form II of WO 2020/236947 A1, 6-fluoro-7-(2-fluoro-6-hydroxyphenyl)-1-(4-methyl-2-(2-propanyl)-3-pyridinyl)-4-((2S)-2-methyl-4-(2-propenoyl)-1-piperazinyl)pyrido[2,3-d]pyrimidin-2(1H)-one], the “hygroscopic behaviour (in words)” value [4] is given as “hygroscopic” and the “Mass increase from 0-90% RH at 25° C.” value [4] is given as “+2-2.5%^”.
